Values of other authors, collected in patent US20030212138A1, “Combinations of peroxisome proliferator-activated receptor-alpha agonists and cyclooxygenase-2 selective inhibitors and therapeutic uses therefor” (Pharmacia Corporation, priority 2002, published 2003).

Tested on: fibroblast growth factor-induced corneal angiogenesis
Conditions: rats; Masferrer et al. 1999

Cc1ccc(-c2cc(C(F)(F)F)nn2-c2ccc(S(N)(=O)=O)cc2)cc1 [Celecoxib®, 4-[5-(4-methylphenyl)-3-(trifluoromethyl)-1H-pyrazol-1-yl]benzenesulfonamide]
inhibition of fibroblast growth factor-induced corneal angiogenesis: potent inhibition
